Results reported in US9763445B2, “Safened herbicidal compositions comprising a pyridine carboxylic acid herbicide” (Dow AgroSciences, LLC, priority 2014, dated 2017).

Legend:
spring barley (HORVS) = test: Postemergence greenhouse trial, % visual injury on spring barley; assay type: in vivo, Hordeum vulgare
In short: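 Greenhouse crops at second to third true leaf stage sprayed postemergence at 187 L/ha with herbicide (g ae/ha) plus safener (g ai/ha) in acetone/DMSO diluted into 1.5% v/v Agri-dex. Injury scored visually versus solvent-blank controls after 20-22 d, 0 (none) to 100% (complete kill); expected mixture effects by Colby's equation.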

pigweed (AMARE) = test: Postemergence greenhouse trial, % visual injury on pigweed; assay type: in vivo, Amaranthus retroflexus; conditions: for % visual injury, Ob / % visual injury, observed (Ob): AMARE
In short: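 Postemergence greenhouse spray (187 L/ha, 1.5% v/v Agri-dex in water, acetone/DMSO stocks) on plants at second–third true leaf stage, ~23/22 °C, 14 h photoperiod; herbicides in g ae/ha, safener cloquintocet-mexyl in g ai/ha. Visual injury 0–100% versus solvent-blank controls after 20–22 d; Colby's equation gave expected mixture effects.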

lambsquarters (CHEAL) = test: Postemergence greenhouse trial, % visual injury on lambsquarters; assay type: in vivo, Chenopodium album; conditions: CHEAL
In short: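 Plants at second or third true leaf stage, greenhouse-grown (14 h photoperiod, ~23/22° C.), sprayed postemergence with compounds alone or with safener cloquintocet-mexyl in 1.5% v/v Agri-dex crop oil at 187 L/ha. Visual injury scored 0–100% versus solvent-blank controls after 20-22 d; expected mixture effects by Colby's equation.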

CCCCCC(C)OC(=O)COc1ccc(Cl)c2cccnc12 (stereo not drawn) [CQC-m, cloquintocet-mexyl, reference compound]
0%: % visual injury, Ob (spring barley (HORVS); HORVS, 4.375 g/ha, applied alone) | % visual injury, Ob (spring barley (HORVS); HORVS, 8.75 g/ha, applied alone) | % visual injury, Ob (spring barley (HORVS); HORVS, 17.5 g/ha, applied alone) | % visual injury, Ob (spring barley (HORVS); HORVS, 35 g/ha, applied alone) | % visual injury, Ob (spring barley (HORVS); HORVS, 70 g/ha, applied alone) | % visual injury, Ob (spring barley (HORVS); HORVS, compound 0, CQC-m 4.375 g/ha) | % visual injury, Ob (spring barley (HORVS); HORVS, compound 0, CQC-m 8.75 g/ha) | % visual injury, Ob (spring barley (HORVS); HORVS, compound 0, CQC-m 17.5 g/ha) | % visual injury, Ob (spring barley (HORVS); HORVS, compound 0, CQC-m 35 g/ha) | % visual injury, Ob (spring barley (HORVS); HORVS, compound 0, CQC-m 70 g/ha) | % visual injury, Ob (spring barley (HORVS); HORVS, compound 0 g/ha, CQC-m 4.375 g/ha) | % visual injury, Ob (spring barley (HORVS); HORVS, compound 0 g/ha, CQC-m 8.75 g/ha) | % visual injury, Ob (spring barley (HORVS); HORVS, compound 0 g/ha, CQC-m 17.5 g/ha) | % visual injury, Ob (spring barley (HORVS); HORVS, compound 0 g/ha, CQC-m 35 g/ha) | % visual injury, Ob (spring barley (HORVS); HORVS, compound 0 g/ha, CQC-m 70 g/ha) | % visual injury, observed (Ob) (spring barley (HORVS); HORVS, compound 8 0 + CQC-m 4.375 g/ha) | % visual injury, observed (Ob) (spring barley (HORVS); HORVS, compound 8 0 + CQC-m 8.75 g/ha) | % visual injury, observed (Ob) (spring barley (HORVS); HORVS, compound 8 0 + CQC-m 17.5 g/ha) | % visual injury, observed (Ob) (spring barley (HORVS); HORVS, compound 8 0 + CQC-m 35 g/ha) | % visual injury, observed (Ob) (spring barley (HORVS); HORVS, compound 8 0 + CQC-m 70 g/ha) | % visual injury, Ob (spring barley (HORVS); alone, 4.375 g/ha) | % visual injury, Ob (spring barley (HORVS); alone, 8.75 g/ha) | % visual injury, Ob (spring barley (HORVS); alone, 17.5 g/ha) | % visual injury, Ob (spring barley (HORVS); alone, 20 g/ha) | % visual injury, Ob (spring barley (HORVS); alone, 35 g/ha) | % visual injury, Ob (spring barley (HORVS); alone, 40 g/ha) | % visual injury, Ob (spring barley (HORVS); alone, 70 g/ha) | % visual injury, Ob (spring barley (HORVS); alone, 80 g/ha) | % visual injury, Ob (pigweed (AMARE); 4.375 g/ha, applied alone) | % visual injury, Ob (pigweed (AMARE); 8.75 g/ha, applied alone) | % visual injury, Ob (pigweed (AMARE); 17.5 g/ha, applied alone) | % visual injury, Ob (pigweed (AMARE); 35 g/ha, applied alone) | % visual injury, Ob (pigweed (AMARE); 70 g/ha, applied alone) | % visual injury, Ob (pigweed (AMARE); compound 0, CQC-m 4.375 g/ha) | % visual injury, Ob (pigweed (AMARE); compound 0, CQC-m 8.75 g/ha) | % visual injury, Ob (pigweed (AMARE); compound 0, CQC-m 17.5 g/ha) | % visual injury, Ob (pigweed (AMARE); compound 0, CQC-m 35 g/ha) | % visual injury, Ob (pigweed (AMARE); compound 0, CQC-m 70 g/ha) | % visual injury, Ob (pigweed (AMARE); compound 0 g/ha, CQC-m 4.375 g/ha) | % visual injury, Ob (pigweed (AMARE); compound 0 g/ha, CQC-m 8.75 g/ha) | % visual injury, Ob (pigweed (AMARE); compound 0 g/ha, CQC-m 17.5 g/ha) | % visual injury, Ob (pigweed (AMARE); compound 0 g/ha, CQC-m 35 g/ha) | % visual injury, Ob (pigweed (AMARE); compound 0 g/ha, CQC-m 70 g/ha) | % visual injury, observed (Ob) (pigweed (AMARE); safener alone 2.5 g/ha) | % visual injury, observed (Ob) (pigweed (AMARE); safener alone 5 g/ha) | % visual injury, observed (Ob) (pigweed (AMARE); safener alone 10 g/ha) | % visual injury, observed (Ob) (pigweed (AMARE); safener alone 20 g/ha) | pest or weed control at 4.375 g/ha (pigweed (AMARE); Amaranthus retroflexus, post-emergence, alone, 4.375 g/ha, read-out: % visual injury, Ob) | pest or weed control at 8.75 g/ha (pigweed (AMARE); Amaranthus retroflexus, post-emergence, alone, 8.75 g/ha, read-out: % visual injury, Ob) | pest or weed control at 17.5 g/ha (pigweed (AMARE); Amaranthus retroflexus, post-emergence, alone, 17.5 g/ha, read-out: % visual injury, Ob) | pest or weed control at 20 g/ha (pigweed (AMARE); Amaranthus retroflexus, post-emergence, alone, 20 g/ha, read-out: % visual injury, Ob) | pest or weed control at 35 g/ha (pigweed (AMARE); Amaranthus retroflexus, post-emergence, alone, 35 g/ha, read-out: % visual injury, Ob) | pest or weed control at 40 g/ha (pigweed (AMARE); Amaranthus retroflexus, post-emergence, alone, 40 g/ha, read-out: % visual injury, Ob) | pest or weed control at 70 g/ha (pigweed (AMARE); Amaranthus retroflexus, post-emergence, alone, 70 g/ha, read-out: % visual injury, Ob) | pest or weed control at 80 g/ha (pigweed (AMARE); Amaranthus retroflexus, post-emergence, alone, 80 g/ha, read-out: % visual injury, Ob) | % visual injury, Δ (pigweed (AMARE); alone, 35 g/ha) | % visual injury, Ob (lambsquarters (CHEAL); 4.375 g/ha, applied alone) | % visual injury, Ob (lambsquarters (CHEAL); 8.75 g/ha, applied alone) | % visual injury, Ob (lambsquarters (CHEAL); 17.5 g/ha, applied alone) | % visual injury, Ob (lambsquarters (CHEAL); 35 g/ha, applied alone) | % visual injury, Ob (lambsquarters (CHEAL); 70 g/ha, applied alone) | % visual injury, Ob (lambsquarters (CHEAL); compound 0, CQC-m 4.375 g/ha) | % visual injury, Ob (lambsquarters (CHEAL); compound 0, CQC-m 8.75 g/ha) | % visual injury, Ob (lambsquarters (CHEAL); compound 0, CQC-m 17.5 g/ha) | % visual injury, Ob (lambsquarters (CHEAL); compound 0, CQC-m 35 g/ha) | % visual injury, Ob (lambsquarters (CHEAL); compound 0, CQC-m 70 g/ha)
